Results as given in patent US6384304B1, “Conditional sterility in wheat” (Plant Genetic Systems N.V., priority 1999, dated 2002).

Test system: Triticum aestivum plants
Conditions: 0.1% active ingredient, microdroplets on leaf blades, stage 32, outdoor; radioactivity measurements and autoradiography at different time points
Method: Plant treatment: The application solution of the formulated test compound was applied in the form of microdroplets by syringe to the blades (adaxial surface) of the fuilly developed leaves. A volume of 20 μl each was applied to the 3rd or 4th leaf of the main shoot and of two tillers per plant (=a total of 60 μl application solution per plant.). Plants were kept under outdoor conditions and uptake and translocation of the test substance was analyzed at different stages.
Sampling of Leaf Tissue was Carried Out at the Following Time Points:
1) 1 week after treatment
2) 3 weeks after treatment
Processing of Collected Samples for quantitative Determinations:
For the sampling done at time points 1, 2 and 3, the treated leaf blades were cut off and the non-absorbed test compound was washed from the treated leaf blades by 2 consecutive short washes with water. Subsequently plants were dissected further, resulting in the following parts: […]
Radioactivity was quantified in the different plant parts and in the washing solutions and was calculated as equivalents of the labeled compounds. […]
For the sampling time point 4, radioactivity is determined in the grains only and is calculated as equivalents of the labeled test compound. […]
In addition to the quantitative radioactivity measurements the distribution of radioactivity is determined by autoradiography in plants of the sampling time points 1 and 2.

Structure (SMILES): CC(=O)N[C@@H](CCP(C)(=O)[O-])C(=O)[O-].[Na+].[Na+] [N-acetyl PPT, dinatrium L-2-acetamido-4-methylphosphinato-butyrate-[3^14C, 4^14C]]
- foliar uptake in wheat tissue: good
- translocation of the test substance in the plant: translocation through the phloem to the ears both in the main shoot and the tillers
